Assay results from patent US12503438B2, “Compounds for the treatment of kinase-dependent disorders” (Exelixis, Inc., priority 2019, dated 2025).

Legend:
[1] = molecular target: KDR (Homo sapiens, UniProt P35968); assay: Human KDR kinase assay (33P-phosphoryl transfer radiometric, KinaseProfiler); design: Human KDR (residues K790-V1356, 55 nM); purchased Eurofins Pharma Discovery Services UK Limited (KinaseProfiler service); conditions: biochemical activity; 10 μM ATP
Protocol: (§1) Kinase activity and compound inhibition were investigated using the ^33P-Phosphoryl transfer radiometric kinase assay, performed using the KinaseProfiler™ service of Eurofins Pharma Discovery Services UK Limited. Dose-response experiments were performed using nine compound concentrations in a 96-well microtiter plate. For each assay, all compounds were prepared to a 50× final assay concentration (50 μM) in 100% DMSO, then diluted in a half-log series, with the final top concentration at 1 μM. This working stock of the compound was added to the assay well as the first component in the reaction, followed by the remaining components as detailed in the following assay protocols below. The positive control wells (100% kinase activity) contain all components of the reaction including 2% DMSO (control for solvent effects), except the compound of interest. Blank wells contain all components of the reaction, with the reference inhibitor, staurosporine. This reference compound was used to abolish kinase activity and generated the 0% kinase activity base-line. IC50 values were calculated by nonlinear regression analysis using the sigmoidal dose-response (variable slope) curve fit on XLFit version 5.3 (ID Business Solutions).
(§2) Human KDR (residues K790-V1356, 55 nM) was incubated with 8 mM MOPS pH 7.0, 0.2 mM EDTA, 0.33 mg/mL myelin basic protein, 10 mM magnesium acetate, and 10 μM [γ-^33P-ATP]. The reaction was initiated by the addition of the Mg/ATP mix. After incubation for 40 minutes at room temperature, the reaction was stopped by the addition of phosphoric acid to a concentration of 0.5%. A reaction aliquot of 10 μL was then spotted onto a P30 filtermat and washed four times for 4 minutes in 0.425% phosphoric acid and once in methanol prior to drying and scintillation counting. Incorporated ^33P was measured using the Wallac Microbeta scintillation counter (Perkin Elmer).

[2] = molecular target: T1, Human Mer (Homo sapiens, UniProt Q12866); assay: Human Mer kinase assay (33P-phosphoryl transfer radiometric, KinaseProfiler); conditions: biochemical activity; 10 μM ATP
T1 construct: Human Mer (residues R557-E882 with H628Q and R794A, 0.7 nM); purchased Eurofins Pharma Discovery Services UK Limited (KinaseProfiler service)
T1 sequence (Q12866 557-882 limits assumed): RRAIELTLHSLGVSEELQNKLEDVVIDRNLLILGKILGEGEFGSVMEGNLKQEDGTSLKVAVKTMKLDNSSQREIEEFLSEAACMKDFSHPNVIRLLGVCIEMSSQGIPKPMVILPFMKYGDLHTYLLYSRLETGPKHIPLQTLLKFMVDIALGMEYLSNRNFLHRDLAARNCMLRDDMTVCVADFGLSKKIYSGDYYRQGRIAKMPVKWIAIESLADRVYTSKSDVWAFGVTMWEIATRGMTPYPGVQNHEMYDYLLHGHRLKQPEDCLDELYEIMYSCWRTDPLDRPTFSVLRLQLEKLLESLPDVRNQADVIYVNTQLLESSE
Protocol: as §1
as §2, with “Mer” for “KDR”, “R557-E882 with H628Q and R794A, 0.7” for “K790-V1356, 55”, “30 mM NaCl, 250 μM GGMEDIYFEFMGGKKK,” for “0.33 mg/mL myelin basic protein,”, “acetate” for “acetate,”, “[y-^33P-ATP].” for “[γ-^33P-ATP].”

Chain of KDR (P35968 790-1356): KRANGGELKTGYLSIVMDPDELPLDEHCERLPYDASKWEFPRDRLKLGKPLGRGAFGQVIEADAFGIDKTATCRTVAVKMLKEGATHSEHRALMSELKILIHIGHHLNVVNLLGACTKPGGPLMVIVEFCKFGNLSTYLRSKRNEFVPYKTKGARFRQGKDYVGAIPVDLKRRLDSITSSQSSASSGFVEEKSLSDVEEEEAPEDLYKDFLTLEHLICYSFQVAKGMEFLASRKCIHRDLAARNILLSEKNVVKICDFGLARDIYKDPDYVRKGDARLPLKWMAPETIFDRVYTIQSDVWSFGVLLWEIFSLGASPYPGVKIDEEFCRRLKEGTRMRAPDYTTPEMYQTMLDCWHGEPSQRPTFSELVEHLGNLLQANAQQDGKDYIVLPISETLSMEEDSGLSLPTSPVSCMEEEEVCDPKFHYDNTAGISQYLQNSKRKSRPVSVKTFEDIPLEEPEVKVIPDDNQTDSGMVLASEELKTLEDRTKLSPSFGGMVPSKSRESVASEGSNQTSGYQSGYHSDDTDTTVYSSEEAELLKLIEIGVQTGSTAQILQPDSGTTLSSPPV

With Cn1nccc1-c1ccc2c(Oc3ccc(NC(=O)C4(C(=O)Nc5ccc(F)cc5)CC4)cc3)ccnc2c1 [Compound 54, 1-N′-(4-Fluorophenyl)-1-N-[4-[7-(2-methylpyrazol-3-yl)quinolin-4-yl]oxyphenyl]cyclopropane-1,1-dicarboxamide] the IC50 [1] was 0.01 to 0.1 µM and the IC50 [2] was at most 0.01 µM.

For Cn1cc(-c2ccc3c(Oc4ccc(NC(=O)C5(C(=O)N6CCc7cc(F)ccc76)CC5)cc4)ccnc3c2)cn1 [Compound 81, 1-(5-Fluoro-2,3-dihydroindole-1-carbonyl)-N-[4-[7-(1-methylpyrazol-4-yl)quinolin-4-yl]oxyphenyl]cyclopropane-1-carboxamide], the IC50 [1] was 0.01 to 0.1 µM and the IC50 [2] was 0.01 to 0.1 µM.

Work on COc1cc2c(Oc3ccc(NC(=O)C4(C(=O)Nc5ccc(F)cc5)CC4)cc3)ccnc2cc1-c1cnn(C)c1 [Compound 76, 1-N′-(4-Fluorophenyl)-1-N-[4-[6-methoxy-7-(1-methylpyrazol-4-yl)quinolin-4-yl]oxyphenyl]cyclopropane-1,1-dicarboxamide] yielded an IC50 [1] of 0.01 to 0.1 µM and an IC50 [2] of at most 0.01 µM.

Work on O=C(Nc1ccc(F)cc1)C1(C(=O)Nc2ccc(Oc3ccnc4cc(-c5cnn(C(F)F)c5)ccc34)cc2)CC1 [Compound 13, 1-N-[4-[7-[1-(Difluoromethyl)pyrazol-4-yl]quinolin-4-yl]oxyphenyl]-1-N′-(4-fluorophenyl)cyclopropane-1,1-dicarboxamide] yielded an IC50 [1] of 0.01 to 0.1 µM and an IC50 [2] of at most 0.01 µM.

O=C(Nc1ccc(F)cc1)C1(C(=O)Nc2ccc(Oc3ccnc4cc(-c5ccncc5)ccc34)cc2)CC1 [Compound 26, 1-N′-(4-Fluorophenyl)-1-N-[4-(7-pyridin-4-ylquinolin-4-yl)oxyphenyl]cyclopropane-1,1-dicarboxamide] was tested, and the IC50 [1] was 0.01 to 0.1 µM and the IC50 [2] was at most 0.01 µM.

Work on O=C(Nc1ccc(F)cc1)C1(C(=O)Nc2ccc(Oc3ccnc4cc(C5CCNC5)ccc34)cc2)CC1 (centres unmarked) [Compound 83, 1-N′-(4-Fluorophenyl)-1-N-[4-(7-pyrrolidin-3-ylquinolin-4-yl)oxyphenyl]cyclopropane-1,1-dicarboxamide] yielded an IC50 [1] of 0.01 to 0.1 µM and an IC50 [2] of at most 0.01 µM.

Work on CC1Cc2cc(F)ccc2N1C(=O)C1(C(=O)Nc2ccc(Oc3ccnc4cc(-c5cnn(C)c5)ccc34)cc2)CC1 (centres unmarked) [Compound 80, 1-(5-Fluoro-2-methyl-2,3-dihydroindole-1-carbonyl)-N-[4-[7-(1-methylpyrazol-4-yl)quinolin-4-yl]oxyphenyl]cyclopropane-1-carboxamide] yielded an IC50 [1] of 0.1 to 1 µM and an IC50 [2] of 0.1 to 1 µM.

O=C(Nc1ccc(F)cc1)C1(C(=O)Nc2ccc(Oc3ccnc4cc(-c5ncc[nH]5)ccc34)cc2)CC1 [Compound 74, 1-N′-(4-Fluorophenyl)-1-N-[4-[7-(1H-imidazol-2-yl)quinolin-4-yl]oxyphenyl]cyclopropane-1,1-dicarboxamide] gave an IC50 [1] of 0.01 to 0.1 µM and an IC50 [2] of at most 0.01 µM.

Molecule O=C(Nc1ccc(F)cc1)C1(C(=O)Nc2ccc(Oc3ccnc4cc(-c5cnoc5)ccc34)cc2)CC1 [Compound 57, 1-N′-(4-Fluorophenyl)-1-N-[4-[7-(1,2-oxazol-4-yl)quinolin-4-yl]oxyphenyl]cyclopropane-1,1-dicarboxamide] has an IC50 [1] of 0.01 to 0.1 µM and an IC50 [2] of at most 0.01 µM.

With Cn1ccc(-c2ccc3c(Oc4ccc(NC(=O)C5(C(=O)Nc6ccc(F)cc6)CC5)cc4)ccnc3c2)n1 [Compound 17, 1-N′-(4-Fluorophenyl)-1-N-[4-[7-(1-methylpyrazol-3-yl)quinolin-4-yl]oxyphenyl]cyclopropane-1,1-dicarboxamide] the IC50 [1] was 0.01 to 0.1 µM and the IC50 [2] was at most 0.01 µM.

O=C(Nc1ccc(F)cc1)C1(C(=O)Nc2ccc(Oc3ccnc4cc(-c5cccnc5)ccc34)cc2)CC1 [Compound 25, 1-N′-(4-Fluorophenyl)-1-N-[4-(7-pyridin-3-ylquinolin-4-yl)oxyphenyl]cyclopropane-1,1-dicarboxamide] gave an IC50 [1] of 0.01 to 0.1 µM and an IC50 [2] of at most 0.01 µM.

With Cc1cc2c(Oc3ccc(NC(=O)C4(C(=O)Nc5ccc(F)cc5)CC4)cc3)ccnc2cc1-c1cnn(C)c1 [Compound 78, 1-N′-(4-Fluorophenyl)-1-N-[4-[6-methyl-7-(1-methylpyrazol-4-yl)quinolin-4-yl]oxyphenyl]cyclopropane-1,1-dicarboxamide] the IC50 [1] was 0.01 to 0.1 µM and the IC50 [2] was at most 0.01 µM.

Work on CNC(=O)c1cc2c(Oc3ccc(NC(=O)C4(C(=O)Nc5ccc(F)cc5)CC4)cc3)ccnc2cc1-c1cnn(C)c1 [Compound 77, 1-N′-(4-Fluorophenyl)-1-N-[4-[6-(methylcarbamoyl)-7-(1-methylpyrazol-4-yl)quinolin-4-yl]oxyphenyl]cyclopropane-1,1-dicarboxamide] yielded an IC50 [1] of 0.01 to 0.1 µM and an IC50 [2] of at most 0.01 µM.

For Cc1cc(F)cc(C)c1NC(=O)C1(C(=O)Nc2ccc(Oc3ccnc4cc(-c5cnn(C)c5)ccc34)cc2)CC1 [Compound 82, 1-N′-(4-Fluoro-2,6-dimethylphenyl)-1-N-[4-[7-(1-methylpyrazol-4-yl)quinolin-4-yl]oxyphenyl]cyclopropane-1,1-dicarboxamide], the IC50 [1] was 0.01 to 0.1 µM and the IC50 [2] was at most 0.01 µM.

In the case of O=C(Nc1ccc(F)cc1)C1(C(=O)Nc2ccc(Oc3ccnc4cc(-c5cnn(C6CCNCC6)c5)ccc34)cc2)CC1 [Compound 60, 1-N′-(4-Fluorophenyl)-1-N-[4-[7-(1-piperidin-4-ylpyrazol-4-yl)quinolin-4-yl]oxyphenyl]cyclopropane-1,1-dicarboxamide], the IC50 [1] is reported as 0.01 to 0.1 µM and the IC50 [2] is reported as at most 0.01 µM.

Work on O=C(Nc1ccc(F)cc1)C1(C(=O)Nc2ccc(Oc3ccnc4cc(-c5ccn[nH]5)ccc34)cc2)CC1 [Compound 68, 1-N′-(4-Fluorophenyl)-1-N-[4-[7-(1H-pyrazol-5-yl)quinolin-4-yl]oxyphenyl]cyclopropane-1,1-dicarboxamide] yielded an IC50 [1] of 0.01 to 0.1 µM and an IC50 [2] of at most 0.01 µM.

O=C(Nc1ccc(F)cc1)C1(C(=O)Nc2ccc(Oc3ccnc4cc(-c5cn[nH]c5)ccc34)cc2)CC1 [Compound 67, 1-N′-(4-Fluorophenyl)-1-N-[4-[7-(1H-pyrazol-4-yl)quinolin-4-yl]oxyphenyl]cyclopropane-1,1-dicarboxamide] was tested, and the IC50 [1] was 0.01 to 0.1 µM and the IC50 [2] was at most 0.01 µM.

Molecule O=C(Nc1ccc(F)cc1)C1(C(=O)Nc2ccc(Oc3ccnc4cc(-c5cncnc5)ccc34)cc2)CC1 [Compound 27, 1-N′-(4-Fluorophenyl)-1-N-[4-(7-pyrimidin-5-ylquinolin-4-yl)oxyphenyl]cyclopropane-1,1-dicarboxamide] has an IC50 [1] of at most 0.01 µM and an IC50 [2] of at most 0.01 µM.

O=C(Nc1ccc(F)cc1)C1(C(=O)Nc2ccc(Oc3ccnc4cc(-c5ccccn5)ccc34)cc2)CC1 [Compound 85, 1-N′-(4-Fluorophenyl)-1-N-[4-(7-pyridin-2-ylquinolin-4-yl)oxyphenyl]cyclopropane-1,1-dicarboxamide] showed an IC50 [1] of 0.01 to 0.1 µM and an IC50 [2] of at most 0.01 µM.

For O=C(Nc1ccc(F)cc1)C1(C(=O)Nc2ccc(Oc3ccnc4cc(-c5cnn(CCO)c5)ccc34)cc2)CC1 [Compound 18, 1-N′-(4-Fluorophenyl)-1-N-[4-[7-[1-(2-hydroxyethyl)pyrazol-4-yl]quinolin-4-yl]oxyphenyl]cyclopropane-1,1-dicarboxamide], the IC50 [1] was at most 0.01 µM and the IC50 [2] was at most 0.01 µM.

C[Si](C)(C)C#Cc1ccc2c(Oc3ccc(NC(=O)C4(C(=O)Nc5ccc(F)cc5)CC4)cc3)ccnc2c1 [Compound 63, 1-N′-(4-Fluorophenyl)-1-N-[4-[7-(2-trimethylsilylethynyl)quinolin-4-yl]oxyphenyl]cyclopropane-1,1-dicarboxamide] gave an IC50 [1] of 0.1 to 1 µM and an IC50 [2] of 0.1 to 1 µM.

With O=C(Nc1ccc(F)cc1)C1(C(=O)Nc2ccc(Oc3ccnc4cc(-c5nnco5)ccc34)cc2)CC1 [Compound 73, 1-N′-(4-Fluorophenyl)-1-N-[4-[7-(1,3,4-oxadiazol-2-yl)quinolin-4-yl]oxyphenyl]cyclopropane-1,1-dicarboxamide] the IC50 [1] was 0.01 to 0.1 µM and the IC50 [2] was at most 0.01 µM.
